pIC50: −log10 of the molar value.
How the values were obtained:
[1] = test system: bicistronic HCV replicon (replicon RNA, GenBank Accession No. AJ242654); experiment: HCV Replicon Assay; type: cell-based; conditions: Hepatitis C virus, 72 h, read-out: Replicon IC50

COc1cc2c(C#N)c(-c3ccc(S(=O)(=O)N[C@@H](C)C(F)(F)F)cn3)n(C3CCC3)c2cc1C [compound 757, 6-(3-cyano-1-cyclobutyl-5-methoxy-6-methyl-1H-indol-2-yl)-N-[(2S)-1,1,1-trifluoropropan-2-yl]pyridine-3-sulfonamide]
pIC50 [1]: 5.70 to 6.30 | melting point: 222 to 223 °C

CC(C)(C)NS(=O)(=O)c1ccc(-c2c(C#N)c3cc(F)c(C4CC4)cc3n2C2CCCC2)nc1 [compound 832, N-tert-butyl-6-(3-cyano-1-cyclopentyl-6-cyclopropyl-5-fluoro-1H-indol-2-yl)pyridine-3-sulfonamide]
pIC50 [1]: > 6.30 | melting point: 186 to 188 °C

CC(C)Oc1ccc2c(C#N)c(-c3ccc(NS(=O)(=O)C4CC4)nn3)n(C3CCC3)c2c1 [compound 274, N-{6-[3-cyano-1-cyclobutyl-6-(propan-2-yloxy)-1H-indol-2-yl]pyridazin-3-yl}cyclopropanesulfonamide]
pIC50 [1]: 5.30 to 5.70 | melting point: 175 to 177 °C

C[C@H](NS(=O)(=O)c1cnc(-c2c(C#N)c3cc(Cl)ccc3n2C2CCC2)nc1)C(F)(F)F [compound 454, 2-(5-chloro-3-cyano-1-cyclobutyl-1H-indol-2-yl)-N-[(2S)-1,1,1-trifluoropropan-2-yl]pyrimidine-5-sulfonamide]
pIC50 [1]: > 6.30 | melting point: 232 to 234 °C

Cc1ccc2c(C#N)c(-c3ccc(S(=O)(=O)NC(CF)CF)cn3)n(-c3ccccc3)c2c1 [compound 111, 6-(3-cyano-6-methyl-1-phenyl-1H-indol-2-yl)-N-(1,3-difluoropropan-2-yl)pyridine-3-sulfonamide]
pIC50 [1]: > 6.30 | melting point: 181 to 185 °C

C[C@H](NS(=O)(=O)c1ccc(-c2c(C#N)c3cc(F)ccc3n2C2CCC2)nc1)C1CC1 [compound 142, 6-(3-cyano-1-cyclobutyl-5-fluoro-1H-indol-2-yl)-N-[(1S)-1-cyclopropylethyl]pyridine-3-sulfonamide]
pIC50 [1]: > 6.30 | melting point: 128 to 130 °C

CCc1cc2c(cc1F)c(C(N)=O)c(-c1ccc(S(=O)(=O)N[C@@H](C)C(F)(F)F)cn1)n2-c1ccc(C(F)(F)F)cc1 [compound 1022, 6-ethyl-5-fluoro-1-[4-(trifluoromethyl)phenyl]-2-(5-{[(2S)-1,1,1-trifluoropropan-2-yl]sulfamoyl}pyridin-2-yl)-1H-indole-3-carboxamide]
pIC50 [1]: > 6.30 | melting point: 253 to 259 °C

N#Cc1c(-c2ncc(S(=O)(=O)NC(CF)CF)cn2)n(C2CCCC2)c2cc(Cl)ccc12 [compound 157, 2-(6-chloro-3-cyano-1-cyclopentyl-1H-indol-2-yl)-N-(1,3-difluoropropan-2-yl)pyrimidine-5-sulfonamide]
pIC50 [1]: > 6.30 | melting point: 233 to 238 °C

N#Cc1c(-c2ccc(S(=O)(=O)NC(CF)CF)cn2)n(-c2ccncc2)c2ccc(F)cc12 [compound 259, 6-[3-cyano-5-fluoro-1-(pyridin-4-yl)-1H-indol-2-yl]-N-(1,3-difluoropropan-2-yl)pyridine-3-sulfonamide]
pIC50 [1]: > 6.30 | melting point: 199 to 203 °C

CC(C)(NS(=O)(=O)c1ccc(-c2c(C(N)=O)c3cc(F)c(OC(F)F)cc3n2C2CCCC2)nc1)C(F)(F)F [compound 863, 1-cyclopentyl-6-(difluoromethoxy)-5-fluoro-2-{5-[(1,1,1-trifluoro-2-methylpropan-2-yl)sulfamoyl]pyridin-2-yl}-1H-indole-3-carboxamide]
pIC50 [1]: > 6.30 | melting point: 215 to 217 °C

Cc1ccc2c(C#N)c(-c3ccc(S(=O)(=O)N[C@H](C)C(F)(F)F)cn3)n(C(C)C)c2c1 [compound 210, 6-[3-cyano-6-methyl-1-(propan-2-yl)-1H-indol-2-yl]-N-[(2R)-1,1,1-trifluoropropan-2-yl]pyridine-3-sulfonamide]
pIC50 [1]: > 6.30 | melting point: 211 to 216 °C

From patent publication US8735414B2 (priority 2009, dated 2014)
